Laboratory results reported in patent US20080248134A1, “Oral compositions, use and combinations of N-[2-(dimethylamino)ethyl]-2,6 dimethyl-1-oxo-1,2-dihydrobenzo[b]-1,6-naphthyridine-4-carboxamide and closely related analogues thereof” (Auckland Uniservices Limited, priority 2005, published 2008).

What was measured:
[1] = tested on: HCT116p53+; assay: In vitro cell proliferation assay, continuous drug exposure; type: cell-based; details: Homo sapiens, continuous drug exposure 3-5 days
Text: (§1) The results with the JLA and JLD lines, which have reduced topoisomerase II content as compared to the parental Jurkat line, indicate that the IC50 value of the compound is increased with decreased topoisomerase content. This is also the case for etoposide, amsacrine, DACA and doxorubicin.

[2] = tested on: HCT116p53−; assay: as above; type: cell-based; details: Homo sapiens, continuous drug exposure 3-5 days
Text: as §1

[3] = tested on: AuxB1; assay: In vitro susceptibility to multidrug resistance, continuous exposure IC50; type: cell-based, Chinese Hamster; details: Cricetulus griseus, AuxB1 (no multidrug resistance)
Protocol: (§2) Multidrug resistance mediated by p-glycoprotein and related transport proteins is an important means by which cancer cells evade cytotoxic drugs. […] IC50 values of several drugs were measured in continuous exposure assays in these two cell lines. The resistance factor was calculated as the ratio of these values. High values indicate high susceptibility to resistance.

[4] = tested on: CHrC5; assay: as above; type: cell-based, Chinese Hamster
Protocol: as §2

[5] = tested on: JLA; assay: In vitro cell survival assay; type: cell-based, human; details: resistant line JLA, 0.4 μM, one hour exposure
Protocol: (§3) Two HCT116 human colon carcinoma lines, one with TP53 wild type status and one with TP53 mutant status, were exposed to the compound of Formula II for 6 hours. The cells were washed free of drug and surviving cells were measured by clonogenic assay. The concentration for maximal reduction of cell survival was 1% for p53 wild-type cells and 5% for p53 mutant cells. The cytotoxicity of the compound of the present invention was also tested in three Jurkat leukaemia lines, two of which, JLA and JLD, are resistant to topoisomerase inhibitors because of low cellular levels of topoisomerase II.

[6] = tested on: JLD; assay: In vitro cell survival assay; type: cell-based, human; details: resistant line JLD, 0.4 μM, one hour exposure
Protocol: as §3

[7] = tested on: wild-type Jurkat line; assay: In vitro cell survival assay; type: cell-based, human; details: 0.4 μM, one hour exposure
Protocol: as §3

[8] = tested on: survivin in HCT116 (TP53 wild type); assay: Inhibition of survivin production, western blotting; type: cell-based, human; details: various concentrations, 24 hours
Protocol: Survivin is a protein that is expressed selectively in many types of cancer cells and which is known to be associated with resistance to apoptosis (Zaffaroni N and Daidone M G. Survivin expression and resistance to anticancer treatments: perspectives for new therapeutic interventions. Drug Resistance Updates: Reviews and Commentaries in Antimicrobial and Anticancer Chemotherapy. 2002 5(2):65-72). […] Extracts were prepared, proteins were separated by electrophoresis and survivin expression was determined by western blotting.

[9] = tested on: Lewis lung; assay: Murine Lewis lung tumour growth delay; type: in vivo; details: intraperitoneal dose of 8.9 mg/kg
Protocol: In addition, the compound of Formula II, by way of an intraperitoneal dose of 8.9 mg/kg, induced a growth delay of 8.5 days in a murine tumour (Lewis lung) that is also used extensively in drug development programmes.

[10] = tested on: H460; assay: Human tumour xenograft; type: in vivo; design: key to Activity: Active: NCI Criterion for activity tumour volume T/C ≦ 40%; Inactive: NCI Criterion for activity tumour volume T/C ≦ 40%; details: H460, Lung
Protocol: (§4) The compound of Formula II was evaluated in a number of xenografts using cell lines derived from cervical, endometrial, lung and colon carcinomas, leukaemia and melanoma (Table 3). These studies indicate that the compound according to the present invention has significant activity in xenografts.

[11] = tested on: HCT116; assay: Human tumour xenograft; type: in vivo; design: key to Activity: Active: NCI Criterion for activity tumour volume T/C ≦ 40%; Inactive: NCI Criterion for activity tumour volume T/C ≦ 40%; details: HCT116, Colon
Protocol: as §4

[12] = tested on: Jurkat LA; assay: Human tumour xenograft; type: in vivo; design: key to Activity: Active: NCI Criterion for activity tumour volume T/C ≦ 40%; Inactive: NCI Criterion for activity tumour volume T/C ≦ 40%; details: Leukaemia
Protocol: as §4

[13] = tested on: NZC1; assay: Human tumour xenograft; type: in vivo; design: key to Activity: Active: NCI Criterion for activity tumour volume T/C ≦ 40%; Inactive: NCI Criterion for activity tumour volume T/C ≦ 40%; details: NZC1, Cervix
Protocol: as §4

[14] = tested on: NZEN1; assay: Human tumour xenograft; type: in vivo; design: key to Activity: Active: NCI Criterion for activity tumour volume T/C ≦ 40%; Inactive: NCI Criterion for activity tumour volume T/C ≦ 40%; details: NZEN1, Endometrium
Protocol: as §4

[15] = tested on: NZM10; assay: Human tumour xenograft; type: in vivo; design: key to Activity: Active: NCI Criterion for activity tumour volume T/C ≦ 40%; Inactive: NCI Criterion for activity tumour volume T/C ≦ 40%; details: NZM10, Melanoma
Protocol: as §4

[16] = tested on: NZM3; assay: Human tumour xenograft; type: in vivo; design: key to Activity: Active: NCI Criterion for activity tumour volume T/C ≦ 40%; Inactive: NCI Criterion for activity tumour volume T/C ≦ 40%; details: NZM3, Melanoma
Protocol: as §4

[17] = tested on: NZM4; assay: Human tumour xenograft; type: in vivo; design: key to Activity: Active: NCI Criterion for activity tumour volume T/C ≦ 40%; Inactive: NCI Criterion for activity tumour volume T/C ≦ 40%; details: NZM4, Melanoma
Protocol: as §4

[18] = tested on: NZMp1; assay: Human tumour xenograft; type: in vivo; design: key to Activity: Active: NCI Criterion for activity tumour volume T/C ≦ 40%; Inactive: NCI Criterion for activity tumour volume T/C ≦ 40%; details: NZMp1, Melanoma
Protocol: as §4

[19] = tested on: colon 38 tumours; assay: Response of colon 38 tumours in immunocompetent and Rag1 immunodeficient mice; type: in vivo
Protocol: A single dose of 5.9 mg/kg of the compound of Formula II was administered intraperitoneally to immunocompetent mice in A, while a 5.9 mg/kg dose on days 0 and 7 was administered to Rag 1 immunodeficient mice (see FIG. 13). […] Initial tumour response (apoptosis induction) is similar in normal and immunosuppressed mice. The compound of Formula II appears to induce a change in tumour cells that activates a T-cell mediated response leading to tumour regression. This dependence on T-cells for response might explain why only moderate activity of the compound of Formula II is found in xenografts.

[20] = P53 not known, tumour volume T/C

Compound: Cc1cccc2cc3c(=O)n(C)cc(C(=O)NCCN(C)C)c3nc12 [Formula II, N-[2-(dimethylamino)ethyl]-2,6 dimethyl-1-oxo-1,2-dihydrobenzo[b]-1,6-naphthyridine-4-carboxamide]
- IC50 [1]: 8.6 nM
- IC50 [2]: 11 nM
- IC50 [3]: 3.5 nM
- IC50 ([4]; Cricetulus griseus, CHrC5 (multidrug resistant), continuous exposure): 5.2 nM
- Resistance factor ([4]; ratio of IC50 values in CHrC5 and AuxB1): 1.5
- survival [5]: 100%
- survival [6]: 100%
- survival [7]: 28%
- survivin expression [8]: suppress survivin production
- growth delay [9]: 8.5 days
- Activity [10]: Active
- % control ([10]; P53 W.T., tumour volume T/C): 38%
- Activity [11]: Inactive
- % control ([11]; P53 W.T., tumour volume T/C): 70%
- Activity [12]: Active
- % control ([12]; P53 Null, tumour volume T/C): 28%
- Activity [13]: Active
- % control [13, 20]: 38%
- Activity [14]: Inactive
- % control [14, 20]: 50%
- Activity [15]: Active
- % control ([15]; P53 W.T., tumour volume T/C): 30%
- Activity [16]: Active
- % control ([16]; P53 W.T., tumour volume T/C): 38%
- Activity [17]: Inactive
- % control ([17]; P53 Mutant, tumour volume T/C): 90%
- Activity [18]: Active
- % control [18, 20]: <10%
- activity against colon 38 tumours ([19]; Rag1 immunodeficient mice, 5.9 mg/kg on days 0 and 7): attenuated
- activity against colon 38 tumours ([19]; immunocompetent mice, single dose of 5.9 mg/kg intraperitoneally): active
